Laboratory results reported in patent US4684639A, “Antibacterial penicillins and cephalosporins” (Beecham Group, priority 1983, dated 1987).
Structures can show the parent of a compound that is named as a salt.

Tested on: Klebsiella aerogenes A
Test: MIC against Klebsiella aerogenes A
Type: cell-based
Details: not given
Source text: (§1) The antibiotic compounds of the present invention are active against a wide range of gram negative and gram positive organisms including E. coli such as, for example ESS, JT4, JT425 and NCTC 10418; Pseudomonas Spp. such as Ps.aeruginosa for example 10622 and Dalgleish; Serratia marcescens US32; Klebsiella aerogenes A; Enterobacter cloacae N1; P.mirabilis such as, for example C977 and 889; P.morganii, P.rettgeri; B.subtilis; Staph. aureus such as, for example Oxford and Russell; N.catarrhalis 1502; Strep faecalis I; β-Haemolytic Strep CN10. The MIC data included in the following examples is representative of the activity of the compounds of the present invention.

SMILES | MIC
CCN1CCN(C(=O)NC(C(=O)N[C@@H]2C(=O)N3[C@@H]2SC(C)(C)[C@@H]3C(=O)O)c2cc(O)c(O)cc2Cl)C(=O)C1=O (stereo partly drawn) [Example 1, Sodium 6,β-[D,L-2-(2-chloro-4,5-dihydroxyphenyl)-2-(2,3-dioxo-4-ethylpiperazin-1-ylcarbonylamino)acetamido penicillanate] | < 0.06 µg/mL
CCN1CCN(C(=O)NC(C(=O)N[C@@H]2C(=O)N3[C@@H](C(=O)O)CS[C@H]23)c2cc(OC(C)=O)c(OC(C)=O)cc2Cl)C(=O)C1=O (stereo partly drawn) [Example 2, Sodium 6,β[D,L-2-(2-chloro-4,5-diacetoxyphenyl)-2-(2,3-dioxo-4-ethylpiperazin-1-ylcarbonylamino)acetamido]bisnorpeniclllanate] | < 0.06 µg/mL
CCN1CCN(C(=O)NC(C(=O)N[C@@H]2C(=O)N3[C@@H]2SC(C)(C)[C@@H]3C(=O)O)c2cc(OC(C)=O)c(OC(C)=O)cc2F)C(=O)C1=O (stereo partly drawn) [Example 7, Sodium 6,β-[D,L-2-(4,5-diacetoxy-2-fluorophenyl)-2-(2,3-dioxo-4-ethylpiperazin-1-ylcarbonylamino)acetamido]penicillanate] | 0.5 µg/mL
CCN1CCN(C(=O)N[C@@H](C(=O)N[C@@H]2C(=O)N3[C@@H]2SC(C)(C)[C@@H]3C(=O)O)c2cc(OC(C)=O)c(OC(C)=O)cc2Cl)C(=O)C1=O [Example 9, Sodium 6,β-[D-2-(2-chloro-4,5-diacetoxyphenyl)-2-(2,3-dioxo-4-ethylpiperazin-1-ylcarbonylamino)acetamido]penicillanate] | 0.25 µg/mL
CCN1CCN(C(=O)NC(C(=O)N[C@@H]2C(=O)N3[C@@H]2SC(C)(C)[C@@H]3C(=O)O)c2cc(OC(C)=O)c(OC(C)=O)cc2Br)C(=O)C1=O (stereo partly drawn) [Example 10, Sodium 6,β-[D,L-2-(2-bromo-4,5-diacetoxyphenyl)-2-(2,3-dioxo-4-ethylpiperazin-1-ylcarbonylamino)acetamido]penicillanate] | 1 µg/mL
CCN1CCN(C(=O)N[C@@H](C(=O)N[C@@H]2C(=O)N3[C@@H]2SC(C)(C)[C@@H]3C(=O)O)c2cc(O)c(O)cc2F)C(=O)C1=O [Example 11, Sodium 6,β-[D-2-(4,5-dihydroxy-2-fluorophenyl)-2-(2,3-dioxo-4-ethylpiperazin-1-ylcarbonylamino)acetamido]penicillanate] | 1 µg/mL

Tested on: Proteus mirabilis 889
Test: MIC against Proteus mirabilis 889
Type: cell-based
Details: not given
Source text: as §1

SMILES | MIC
CCN1CCN(C(=O)NC(C(=O)N[C@]2(OC)C(=O)N3[C@@H](C(=O)O)C(C)(C)S[C@@H]32)c2cc(OC(C)=O)c(OC(C)=O)cc2Cl)C(=O)C1=O (stereo partly drawn) [Example 4, Sodium 6,β-[D,L-2-(2-chloro-4,5-diacetoxyphenyl)-2-(2,3-dioxo-4-ethylpiperazin-1-ylcarbonylamino)acetamido]-6,α-methoxypenicillanate] | 4 µg/mL
CCN1CCN(C(=O)NC(C(=O)N[C@]2(NC=O)C(=O)N3[C@@H](C(=O)O)C(C)(C)S[C@@H]32)c2cc(OC(C)=O)c(OC(C)=O)cc2Cl)C(=O)C1=O (stereo partly drawn) [Example 5, Sodium 6,β-[D,L-2-(2-chloro-4,5-diacetoxyphenyl)-2-(2,3-dioxo-4-ethylpiperazin-1-ylcarbonylamino)acetamido]-6,α-formamidopenicillanate] | < 0.06 µg/mL
CCN1CCN(C(=O)N[C@@H](C(=O)N[C@]2(NC=O)C(=O)N3[C@@H](C(=O)O)C(C)(C)S[C@@H]32)c2cc(OC(C)=O)c(OC(C)=O)cc2Cl)C(=O)C1=O [Example 6] | < 0.06 µg/mL
CCN1CCN(C(=O)N[C@@H](C(=O)N[C@]2(NC=O)C(=O)N3[C@@H](C(=O)O)C(C)(C)S[C@@H]32)c2cc(OC(C)=O)c(OC(C)=O)cc2F)C(=O)C1=O [Example 8, Sodium 6,β-[D-2-(4,5-diacetoxy-2-fluorophenyl)-2-(2,3-dioxo-4-ethylpiperazin-1-ylcarbonylamino)acetamido]-6,α-formamidopenicillanate] | < 0.06 µg/mL
CCN1CCN(C(=O)N[C@@H](C(=O)N[C@]2(NC=O)C(=O)N3C(C(=O)O)=C(COC(C)=O)CS[C@@H]32)c2cc(OC(C)=O)c(OC(C)=O)cc2Cl)C(=O)C1=O [Example 14, 7β-[D-2-(2-chloro-4,5-diacetoxyphenyl)-2-[(4-ethyl-2,3-dioxopiperazin-1-yl)carbonylamino]acetamido]-7α-formamidocephalosporanate, sodium salt] | < 0.06 µg/mL
CCN1CCN(C(=O)N[C@@H](C(=O)N[C@]2(NC=O)C(=O)N3C(C(=O)O)=C(CSc4nnnn4C)CS[C@@H]32)c2cc(OC(C)=O)c(OC(C)=O)cc2Cl)C(=O)C1=O [Example 15, 7β-[D-2-(2-Chloro-4,5-diacetoxyphenyl)-2-[(4-ethyl-2,3-dioxopiperazin-1-yl)carbonylamino]acetamido]-7α-formamido-3-[(1-methyl-1H-tetrazol-5-yl)thiomethyl]ceph-3-em-4-carboxylic acid, sodium salt] | 0.06 µg/mL
CCN1CCN(C(=O)N[C@@H](C(=O)N[C@]2(NC=O)C(=O)N3[C@@H](C(=O)O)C(C)(C)S[C@@H]32)c2cc(O)c(O)cc2F)C(=O)C1=O [Example 16, Sodium 6,β-[D-2-(4,5-dihydroxy-2-fluorophenyl)-2-(2,3-dioxo-4-ethylpiperazin-1-ylcarbonylamino)acetamido]-6,α-formamidopenicillanate] | 0.25 µg/mL

Tested on: P. mirabilis 899
Test: MIC against P. mirabilis 899
Type: cell-based
Details: Proteus mirabilis
Source text: as §1

SMILES | MIC
CCN1CCN(C(=O)N[C@@H](C(=O)N[C@]2(NC=O)C(=O)N3C(C(=O)O)=C(COC(C)=O)CS[C@@H]32)c2cc(OC(C)=O)c(OC(C)=O)cc2Br)C(=O)C1=O [Example 13, 7β[D-2-(2-Bromo-4,5-diacetoxyphenyl)-2-[(4-ethyl-2,3-dioxopiperazin-1-yl)carbonylamino]acetamido]-7α-formamidocephalosporanate, sodium salt] | 0.25 µg/mL
CCN1CCN(C(=O)N[C@@H](C(=O)N[C@]2(NC=O)C(=O)N3C(C(=O)O)=C(COC(C)=O)CS[C@@H]32)c2cc(OC(C)=O)c(OC(C)=O)cc2F)C(=O)C1=O [Example 17, 7β[D-2-(4,5-Diacetoxy-2-fluorophenyl)-2-[(4-ethyl-2,3-dioxopiperazin-1-yl)carbonylamino]acetamido]-7α-formamidocephalosporanate, sodium salt] | 0.5 µg/mL
